Source: paper PMC8882856, “The affinity and selectivity of α‐adrenoceptor antagonists, antidepressants and antipsychotics for the human α2A, α2B, and α2C‐adrenoceptors and comparison with human α1 and β‐adrenoceptors” (Pharmacology Research & Perspectives, 2022)

Target: human β2‐adrenoceptor (Homo sapiens, UniProt P07550)
Test: not given
Type: binding
Conditions: ^3H‐CGP12177 whole cell binding; log values, mean ± s.e.mean; ^app = apparent KD; 'no binding to' = log top concentration; read-out: Log KD β2 (converted)

Sequence of human β2‐adrenoceptor (P07550 whole entry): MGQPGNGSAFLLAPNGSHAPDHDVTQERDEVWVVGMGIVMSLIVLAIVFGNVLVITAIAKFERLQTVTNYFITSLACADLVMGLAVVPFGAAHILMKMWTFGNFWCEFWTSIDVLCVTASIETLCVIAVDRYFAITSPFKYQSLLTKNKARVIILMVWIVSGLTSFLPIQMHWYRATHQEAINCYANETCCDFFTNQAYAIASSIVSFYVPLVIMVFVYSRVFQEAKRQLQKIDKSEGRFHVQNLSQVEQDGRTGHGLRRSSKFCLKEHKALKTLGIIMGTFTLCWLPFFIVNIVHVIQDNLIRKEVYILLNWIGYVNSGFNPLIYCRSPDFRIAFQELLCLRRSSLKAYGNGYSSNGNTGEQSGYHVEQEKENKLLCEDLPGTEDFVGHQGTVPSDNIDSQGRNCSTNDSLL

For `COc1ccccc1N1CCN(CCCNc2cc(=O)n(C)c(=O)n2C)CC1` [urapidil], which Kd is on record?
The Kd was 10 µM.

Same assay, conditions: read-out: IC50 (log) β2, IC50>top concentration used (converted)

How did the IC50 turn out when `COC(=O)C1=C(C)NC(C)=C(C(=O)NCCCN2CCC(c3ccccc3)(c3ccccc3)CC2)C1c1ccc([N+](=O)[O-])cc1` (centres unmarked) [SNAP5089] was run?
The IC50 was greater than 10 µM.

Target: T1, human α2A‐adrenoceptor (Homo sapiens, UniProt P08913)
T1 sequence (P08913 1-465): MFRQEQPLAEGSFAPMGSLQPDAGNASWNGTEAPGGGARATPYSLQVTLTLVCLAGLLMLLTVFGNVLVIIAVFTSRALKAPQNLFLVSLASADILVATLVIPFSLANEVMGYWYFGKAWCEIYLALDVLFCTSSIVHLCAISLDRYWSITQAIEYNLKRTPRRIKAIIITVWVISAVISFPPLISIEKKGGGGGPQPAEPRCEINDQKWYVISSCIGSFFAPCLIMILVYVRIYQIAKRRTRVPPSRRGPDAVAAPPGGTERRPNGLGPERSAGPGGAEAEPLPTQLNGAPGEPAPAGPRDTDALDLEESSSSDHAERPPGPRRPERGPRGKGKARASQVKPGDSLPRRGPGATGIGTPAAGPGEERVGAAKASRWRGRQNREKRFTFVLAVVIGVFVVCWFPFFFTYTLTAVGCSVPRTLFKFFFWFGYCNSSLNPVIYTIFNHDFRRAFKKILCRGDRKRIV
Test: cell-based
Conditions: not given

How did the Kd turn out when `Cc1ccc(OCC(O)C(C)NC(C)C)c2c1CCC2` (centres unmarked) [ICI118551] was run?
The Kd was 9.33 µM.

`CC(C)NCC(O)COc1cccc2[nH]c3ccccc3c12` (centres unmarked) [carazolol] was tested. Which Kd did it give?
The Kd was 21.9 µM.

How did the Kd turn out when `CC(CN(C)C)CN1c2ccccc2CCc2ccccc21` (centres unmarked) [trimipramine] was run?
Its Kd is 2.14 µM.

How did the Kd turn out when `COc1ccccc1N1CCN(CCCNc2cc(=O)n(C)c(=O)n2C)CC1` [urapidil] was run?
Its Kd is 3.24 µM.

Target: T2, human α2B‐adrenoceptor (Homo sapiens, UniProt P18089)
T2 sequence (P18089 1-450): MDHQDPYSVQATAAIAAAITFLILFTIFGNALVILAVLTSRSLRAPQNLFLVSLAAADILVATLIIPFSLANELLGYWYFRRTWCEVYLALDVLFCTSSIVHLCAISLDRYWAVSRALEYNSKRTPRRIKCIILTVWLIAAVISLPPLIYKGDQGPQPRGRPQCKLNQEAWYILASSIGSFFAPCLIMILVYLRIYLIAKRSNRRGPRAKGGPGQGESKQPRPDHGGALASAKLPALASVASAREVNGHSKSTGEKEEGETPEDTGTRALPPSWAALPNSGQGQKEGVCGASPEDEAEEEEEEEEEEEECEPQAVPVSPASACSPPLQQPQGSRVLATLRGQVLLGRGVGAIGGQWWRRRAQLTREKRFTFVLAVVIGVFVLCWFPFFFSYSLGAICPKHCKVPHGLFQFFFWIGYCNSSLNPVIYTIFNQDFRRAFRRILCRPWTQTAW
Test: cell-based
Conditions: not given

For `CC(CN(C)C)CN1c2ccccc2CCc2ccccc21` (centres unmarked) [trimipramine], which Kd is on record?
The Kd was 0.603 µM.

Target: T3, human α2C‐adrenoceptor (Homo sapiens, UniProt P18825)
T3 sequence (P18825 1-462): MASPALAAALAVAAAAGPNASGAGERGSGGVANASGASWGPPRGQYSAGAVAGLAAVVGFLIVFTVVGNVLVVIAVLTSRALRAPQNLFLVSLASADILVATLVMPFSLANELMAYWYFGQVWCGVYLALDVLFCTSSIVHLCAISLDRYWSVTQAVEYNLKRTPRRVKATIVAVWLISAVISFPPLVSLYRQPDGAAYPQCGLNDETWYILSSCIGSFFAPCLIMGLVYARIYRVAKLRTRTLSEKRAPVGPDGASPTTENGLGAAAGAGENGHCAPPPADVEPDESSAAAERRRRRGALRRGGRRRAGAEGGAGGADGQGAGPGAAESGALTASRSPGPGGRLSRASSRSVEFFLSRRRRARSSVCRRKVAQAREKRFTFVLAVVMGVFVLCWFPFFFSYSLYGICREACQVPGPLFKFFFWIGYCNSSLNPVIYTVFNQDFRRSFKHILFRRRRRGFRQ
Test: cell-based
Conditions: not given

Which Kd does the source give for `Cn1cc(C(F)(F)F)nc1-c1ccc(OCC(O)CNCCOc2ccc(O)c(C(N)=O)c2)cc1` (centres unmarked) [CGP20712A] here?
The Kd was 6.76 µM.

Which Kd does the source give for `Cc1ccc(OCC(O)C(C)NC(C)C)c2c1CCC2` (centres unmarked) [ICI118551] here?
Its Kd is 8.91 µM.

With `CC(C)NCC(O)COc1cccc2[nH]c3ccccc3c12` (centres unmarked) [carazolol] as the molecule, how does the Kd read?
Its Kd is 21.9 µM.

Which Kd does the source give for `CC(CN(C)C)CN1c2ccccc2CCc2ccccc21` (centres unmarked) [trimipramine] here?
The Kd was 0.427 µM.

Target: human β1‐adrenoceptor (Homo sapiens, UniProt P08588)
Sequence (P08588 whole entry): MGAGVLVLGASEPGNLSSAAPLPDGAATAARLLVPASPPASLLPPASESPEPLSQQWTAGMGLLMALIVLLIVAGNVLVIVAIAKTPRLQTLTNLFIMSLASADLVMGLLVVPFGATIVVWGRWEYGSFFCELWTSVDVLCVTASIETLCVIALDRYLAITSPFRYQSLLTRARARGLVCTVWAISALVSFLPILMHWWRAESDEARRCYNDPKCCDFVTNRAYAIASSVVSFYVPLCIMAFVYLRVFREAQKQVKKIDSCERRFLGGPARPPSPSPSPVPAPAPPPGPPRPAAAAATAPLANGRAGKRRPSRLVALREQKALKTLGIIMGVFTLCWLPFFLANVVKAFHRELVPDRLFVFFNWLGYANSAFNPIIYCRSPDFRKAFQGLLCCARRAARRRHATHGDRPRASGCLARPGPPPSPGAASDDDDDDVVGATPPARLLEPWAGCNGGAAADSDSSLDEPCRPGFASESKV
Test: cell-based
Conditions: not given

For `COC(=O)C1=C(C)NC(C)=C(C(=O)NCCCN2CCC(c3ccccc3)(c3ccccc3)CC2)C1c1ccc([N+](=O)[O-])cc1` (centres unmarked) [SNAP5089], which IC50 is on record?
Its IC50 is greater than 10 µM.

Which IC50 does the source give for `CNCC[C@H](Oc1cccc2ccccc12)c1cccs1` [duloxetine] here?
The IC50 was greater than 31.6 µM.

Target: T1, human α2A‐adrenoceptor
Test: ^3H‐rauwolscine whole cell competition binding, CHO‐α2A cells
Conditions: not given

For `Cn1cc(C(F)(F)F)nc1-c1ccc(OCC(O)CNCCOc2ccc(O)c(C(N)=O)c2)cc1` (centres unmarked) [CGP20712A], which IC50 is on record?
The IC50 was greater than 100 µM.

Which Kd does the source give for `CNCC[C@H](Oc1cccc2ccccc12)c1cccs1` [duloxetine] here?
The Kd was 3.72 µM.

Target: T2, human α2B‐adrenoceptor
Test: ^3H‐rauwolscine whole cell competition binding, CHO‐α2B cells
Conditions: not given

With `Cn1cc(C(F)(F)F)nc1-c1ccc(OCC(O)CNCCOc2ccc(O)c(C(N)=O)c2)cc1` (centres unmarked) [CGP20712A] as the molecule, how does the IC50 read?
The IC50 was greater than 100 µM.

`Cc1ccc(OCC(O)C(C)NC(C)C)c2c1CCC2` (centres unmarked) [ICI118551] was tested. Which IC50 did it give?
Its IC50 is greater than 100 µM.

Which IC50 does the source give for `CC(C)NCC(O)COc1cccc2[nH]c3ccccc3c12` (centres unmarked) [carazolol] here?
Its IC50 is greater than 100 µM.

How did the Kd turn out when `CNCC[C@H](Oc1cccc2ccccc12)c1cccs1` [duloxetine] was run?
The Kd was 4.9 µM.

Target: T3, human α2C‐adrenoceptor
Test: ^3H‐rauwolscine whole cell competition binding, CHO‐α2C cells
Conditions: not given

`CNCC[C@H](Oc1cccc2ccccc12)c1cccs1` [duloxetine] was tested. Which Kd did it give?
The Kd was 2.14 µM.
